Reference: US12383607B2, “Topical composition for improved healing of open wounds” (Eleos Pharmaceuticals, Inc., priority 2017, dated 2025)

Tested on: wound
Experiment: Patient wound healing study
Assay type: in vivo, human
Conditions: topical application directly in the wound
Source text: Thus, for example, a skin ailment could be treated using a disclosed composition as follows: • 1. Clean the skin ailment with soap and warm water, with either a wash cloth or gauze sponge. Cleaning may be lightly abrasive as the subject tolerates. Alternatively, the skin ailment can be cleaned with gauze, moistened with saline and hibiclens. Again, the cleaning may be lightly abrasive as the subject tolerates. • 2. Rinse the ailment thoroughly with warm water or saline so no soap residue remains. • 3. Apply the topical composition to a Q-Tip applicator and lightly cover the surface of the ailment with the composition. […] If eschar is present, apply the composition to the edge of the eschar and beneath the edge of the eschar. The composition need not be applied to the top of the eschar. • 4. Cover the ailment with dry gauze. Wrap and secure the gauze with Kling, Kerlex roll, or Ace wrap. The wrap should be loosely applied so as to secure the dressing but to not apply pressure to the ailment site. • 5. If there is surrounding dermatitis (redness), allow the area to dry (no wrap need be applied).
3. Summary of Patient Wound Healing Study
A summary of the results of a patient wound healing study are illustrated in Table 2 below. The average blood sugar (BS) change by age and class are shown in FIG. 2A and FIG. 2B, respectively. […]

insulin was tested, and the healing was “significantly enhances healing” and the wound glucose level was “decreases the wound glucose level”.
